Where two headings read alike, the source gives them in different places.
Columns and labels:
[1] = tested on: Bel-7402 (human hepatoma cells); assay: MTT cancer cell growth inhibition; type: cell-based; settings: MTT, 72 hours incubation, Bel-7402 cells, read-out: GI50 Bel-7402
Text: (§1) MTT assay principle is yellow MTT can penetrate membrane into the cell, succinic dehydrogenase of the mitochondria in living cells can make exogenous MTT reduction of insoluble in water of blue-violet acicular formazan for crystallization and deposition in the cell, crystallization can be dissolved dimethyl sulfoxide (DMSO) solution, detected its absorbance at 490 nm/570 nm wavelength by enzyme-linked immunosorbent assay, which can reflect the number of cells.
(§2) Using DMEM+10% FBS culture medium or using 1640+10% FBS culture, respectively.
(§3) a) Cells were seeded in 96-well plates with the inoculation of 1500/well, 190 μl/hole, 37° C., 5% of CO2 incubator overnight;
(§4) b) The next day each well was added 10 μl of different drugs. The final concentration of drug was 10^−5˜10^−10M, three parallel holes; 37° C., 5% CO2 culture incubator for 72 hours incubation;
(§5) c) Per well was added 20 μl 5 mg/ml of MTT, 37° C., 5% CO2 culture incubator for 4 hours incubation;
(§6) d) The supernatant was discarded. Each well was added 100 μl of DMSO and oscillation;
(§7) e) 570 nm readings. Calculate cell viability. GI50 calculation based on the results.

[2] = tested on: H1975 (non-small cell lung adenocarcinoma); assay: MTT cancer cell growth inhibition; type: cell-based; settings: MTT, 72 hours incubation, H1975 cells, read-out: GI50 H1975
Text: as §1, §2, §3, §4, §5, §6, §7

[3] = tested on: HCC827 (human non-small cell lung cancer cells); assay: MTT cancer cell growth inhibition; type: cell-based; settings: MTT, 72 hours incubation, HCC827 cells, read-out: GI50 HCC827
Text: as §1, §2, §3, §4, §5, §6, §7

[4] = tested on: Huh-7 (human hepatoma cells); assay: MTT cancer cell growth inhibition; type: cell-based; settings: MTT, 72 hours incubation, Huh-7 cells, read-out: GI50 Huh-7
Text: as §1, §2, §3, §4, §5, §6, §7

[5] = tested on: K562 (human leukemia cells); assay: MTT cancer cell growth inhibition; type: cell-based; settings: MTT, 72 hours incubation, K562 cells, read-out: GI50 K562
Text: as §1, §2, §3, §4, §5, §6, §7

[6] = tested on: KBM-5 (human chronic myelogenous leukemia); assay: MTT cancer cell growth inhibition; type: cell-based; settings: MTT, 72 hours incubation, KBM-5 cells, read-out: GI50 KBM-5
Text: as §1, §2, §3, §4, §5, §6, §7

[7] = tested on: KBM5-T315I (human chronic myelogenous leukemia); assay: MTT cancer cell growth inhibition; type: cell-based; settings: MTT, 72 hours incubation, KBM5-T315I cells, read-out: GI50 KBM5-T315I
Text: as §1, §2, §3, §4, §5, §6, §7

[8] = tested on: MDA-MB-231 (breast cancer cells); assay: MTT cancer cell growth inhibition; type: cell-based
Text: as §1, §2, §3, §4, §5, §6, §7

[9] = tested on: N-87 (human gastric cancer cells); assay: MTT cancer cell growth inhibition; type: cell-based; settings: MTT, 72 hours incubation, N-87 cells, read-out: GI50 N-87
Text: as §1, §2, §3, §4, §5, §6, §7

[10] = tested on: SGC-7901 (human gastric cancer cells); assay: MTT cancer cell growth inhibition; type: cell-based; settings: MTT, 72 hours incubation, SGC-7901 cells, read-out: GI50 SGC-7901
Text: as §1, §2, §3, §4, §5, §6, §7

HDAC7 = target: T1, HDAC7 (Homo sapiens, UniProt Q8WUI4); assay: HDAC biochemical activity measurement (fluorescent substrate deacetylation);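 note: fluorogenic deacetylation assay using acetyl-lysine substrate at 20 µM, enzyme and compound incubated 30 min at 37 °C, then developer added, fluorescence read at 360/460 nm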; settings: HDAC7; 37° C. 30 minutes
T1 sequence (Q8WUI4 1-952): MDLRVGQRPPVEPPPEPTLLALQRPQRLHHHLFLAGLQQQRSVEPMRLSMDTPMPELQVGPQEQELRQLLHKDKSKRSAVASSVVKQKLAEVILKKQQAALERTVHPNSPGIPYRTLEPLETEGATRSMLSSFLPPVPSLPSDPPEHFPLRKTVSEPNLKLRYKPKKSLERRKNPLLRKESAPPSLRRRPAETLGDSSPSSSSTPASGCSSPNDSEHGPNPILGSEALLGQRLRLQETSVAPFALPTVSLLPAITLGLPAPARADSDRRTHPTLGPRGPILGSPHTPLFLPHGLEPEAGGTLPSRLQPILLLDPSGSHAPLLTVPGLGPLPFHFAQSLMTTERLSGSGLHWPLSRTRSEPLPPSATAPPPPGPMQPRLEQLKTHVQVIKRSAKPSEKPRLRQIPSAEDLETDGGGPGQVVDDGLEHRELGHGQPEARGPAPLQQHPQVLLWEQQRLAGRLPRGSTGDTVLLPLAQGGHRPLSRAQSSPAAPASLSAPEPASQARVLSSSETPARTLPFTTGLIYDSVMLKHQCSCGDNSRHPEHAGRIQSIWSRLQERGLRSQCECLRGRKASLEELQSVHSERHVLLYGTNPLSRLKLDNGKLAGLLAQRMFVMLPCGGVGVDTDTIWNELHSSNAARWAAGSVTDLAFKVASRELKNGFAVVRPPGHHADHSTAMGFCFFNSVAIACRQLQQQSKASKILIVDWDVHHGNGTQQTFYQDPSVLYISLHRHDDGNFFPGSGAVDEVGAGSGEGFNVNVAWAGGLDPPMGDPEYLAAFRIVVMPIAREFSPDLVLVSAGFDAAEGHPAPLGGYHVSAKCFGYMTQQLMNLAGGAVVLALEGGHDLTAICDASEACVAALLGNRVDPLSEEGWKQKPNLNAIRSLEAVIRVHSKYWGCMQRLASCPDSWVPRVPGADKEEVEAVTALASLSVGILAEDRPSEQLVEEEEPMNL

[11] = tested on: A549 (human lung cancer cells); assay: MTT cancer cell growth inhibition; type: cell-based; settings: MTT, 72 hours incubation, read-out: GI50 A54
Text: as §1, §2, §3, §4, §5, §6, §7

[12] = tested on: BGC-823 (human gastric cancer cells); assay: MTT cancer cell growth inhibition; type: cell-based; settings: MTT, 72 hours incubation, read-out: GI50 BG
Text: as §1, §2, §3, §4, §5, §6, §7

[13] = tested on: DU145 (human prostate cancer cells); assay: MTT cancer cell growth inhibition; type: cell-based; settings: MTT, 72 hours incubation, read-out: GI50 Du1
Text: as §1, §2, §3, §4, §5, §6, §7

[14] = tested on: HT1080 (human fibrosarcoma cells); assay: MTT cancer cell growth inhibition; type: cell-based; settings: MTT, 72 hours incubation, read-out: GI50 HT1
Text: as §1, §2, §3, §4, §5, §6, §7

[15] = tested on: Hela (human cervical cancer cells); assay: MTT cancer cell growth inhibition; type: cell-based; settings: MTT, 72 hours incubation, read-out: GI50 Hela
Text: as §1, §2, §3, §4, §5, §6, §7

[16] = tested on: MCF-7 (human breast cancer cells); assay: MTT cancer cell growth inhibition; type: cell-based; settings: 72 hours incubation, read-out: GI50 MCF
Text: as §1, §2, §3, §4, §5, §6, §7

[17] = tested on: MOLT-4 (human acute lymphoblastic leukemia cells); assay: MTT cancer cell growth inhibition; type: cell-based; settings: MTT, 72 hours incubation, read-out: GI50 Mol
Text: as §1, §2, §3, §4, §5, §6, §7

[18] = tested on: U937 (human leukemia cells); assay: MTT cancer cell growth inhibition; type: cell-based; settings: MTT, 72 hours incubation, read-out: GI50 U93
Text: as §1, §2, §3, §4, §5, §6, §7

[19] = tested on: lncap (prostate cancer cells); assay: MTT cancer cell growth inhibition; type: cell-based; settings: MTT, 72 hours incubation, read-out: GI50 lnca
Text: as §1, §2, §3, §4, §5, §6, §7

[20] = tested on: PANC-1 (Pac-1, human pancreatic cancer cells); assay: MTT cancer cell growth inhibition; type: cell-based; settings: MTT, 72 hours incubation, read-out: GI50 PAN
Text: as §1, §2, §3, §4, §5, §6, §7

[21] = Homo sapiens, MDA-MB-231, 72 h, read-out: GI50 MDA-MB-231, MTT, 72 hours incubation, MDA-MB-231 cells

IC50 HDAC7 (HDAC7) | GI50 ([11]; Homo sapiens, A549, 72 h) [nM] | GI50 ([1]; Homo sapiens, Bel-7402, 72 h) [nM] | GI50 ([13]; Homo sapiens, DU-145, 72 h) [nM] | GI50 ([2]; Homo sapiens, NCI-H1975, 72 h) [nM] | GI50 ([3]; Homo sapiens, HCC827, 72 h) [nM] | GI50 ([14]; Homo sapiens, HT-1080, 72 h) [nM] | GI50 ([15]; Homo sapiens, HeLa, 72 h) [nM] | GI50 ([4]; Homo sapiens, Huh-7, 72 h) [nM] | GI50 ([5]; Homo sapiens, K562, 72 h) [nM] | GI50 ([6]; Homo sapiens, KBM5, 72 h) [nM] | GI50 ([7]; Homo sapiens, 72 h) [nM] | GI50 ([16]; Homo sapiens, MCF7, 72 h) [nM] | GI50 [8, 21] [nM] | GI50 ([17]; Homo sapiens, MOLT-4, 72 h) [nM] | GI50 ([10]; Homo sapiens, SGC-7901, 72 h) [nM] | GI50 ([18]; Homo sapiens, U-937, 72 h) [nM] | GI50 ([19]; Homo sapiens, LNCaP, 72 h) [nM] | GI50 [12] [nM] | GI50 [11] [nM] | Structure (SMILES) | also measured
– | – | – | – | – | – | – | – | – | – | – | – | – | – | – | – | – | – | – | – | C/C=C1\NC(=O)c2nc(ccc2F)CNC(=O)C[C@@H](/C=C/CCSC(C)=O)OC(=O)[C@H](CC)NC1=O [Example 57] | GI50 [1]: 73 nM; GI50 [2]: 55 nM; GI50 [3]: 73 nM; GI50 [4]: 28 nM; GI50 [5]: 35 nM; GI50 [6]: 74 nM; GI50 [7]: 54 nM; GI50 ([8]; read-out: GI50 MDA-MB-231, MTT, 72 hours incubation, MDA-MB-231 cells): 28 nM; GI50 [9]: 53 nM; GI50 [10]: 92 nM
no activity | 60 | 62 | 50 | 59 | 62 | 70 | 60 | 48 | 17 | 41 | 29 | 30 | 13 | 30 | 57 | 60 | 30 | – | – | C/C=C1\NC(=O)c2cc(F)cc(n2)CNC(=O)C[C@@H](/C=C/CCS)OC(=O)[C@H](CC)NC1=O [Compound 110] | GI50 ([12]; Homo sapiens, BGC-823, 72 h): 30 nM; GI50 ([9]; Homo sapiens, 72 h): 35 nM
no activity | 40 | 83 | 20 | 35 | 83 | 80 | 70 | 22 | 26 | 76 | 38 | 30 | 22 | 20 | 42 | 30 | 20 | 20 | – | C/C=C1\NC(=O)c2ccc(F)c(n2)CNC(=O)C[C@@H](/C=C/CCSC(C)=O)OC(=O)[C@H](C(C)C)NC1=O [Compound 95] | GI50 ([20]; Homo sapiens, PANC-1, 72 h): 80 nM
no activity | – | 34 | – | 27 | 34 | – | – | 38 | 37 | 53 | 34 | – | 38 | – | 68 | – | – | 20 | 60 | C/C=C1\NC(=O)c2nc(ccc2F)CNC(=O)C[C@@H](/C=C/CCSC(C)=O)OC(=O)[C@H](C(C)C)NC1=O [Compound 93] | GI50 [13]: 30 nM; GI50 [14]: 30 nM; GI50 [15]: 50 nM; GI50 [16]: 30 nM; GI50 [17]: 30 nM; GI50 [20]: 30 nM; GI50 [18]: 20 nM; GI50 [19]: 30 nM
no activity | – | – | – | – | – | – | – | – | – | – | – | – | – | – | – | – | – | 60 | 30 | C/C=C1\NC(=O)c2ccc(F)c(n2)CNC(=O)C[C@@H](/C=C/CCSC(C)=O)OC(=O)[C@H](C(C)C)NC1=O (single isomer, unassigned) [Example 50] | GI50 [13]: 40 nM; GI50 [14]: 80 nM; GI50 [15]: 70 nM; GI50 [16]: 60 nM; GI50 [17]: 20 nM; GI50 [20]: 80 nM; GI50 [18]: 30 nM; GI50 [19]: 20 nM
